Reference: patent US20230081426A1, “COMPOUNDS AND METHODS FOR KRAS MODULATION AND INDICATIONS THEREFOR” (Plexxikon Inc., priority 2020, published 2023)

Key:
[1] = target: T1, G12V-mutant human KRAS (amino acid residues 1-188) (Homo sapiens, UniProt P01116, G12V); assay: KRAS Binding Competition Assay (AlphaScreen; biotinylated KRpep-2d analogue), G12V; conditions: geometric mean, read-out: KRAS GMean IC50 (uM) MUTATION: G12V
T1 construct: G12V-mutant human KRAS (amino acid residues 1-188) with FLAG tag was purified from E. coli; made in house; host or cells: E. coli

[2] = target: T2, G12D-mutant human KRAS (amino acid residues 1-188) (Homo sapiens, UniProt P01116, G12D); assay: KRAS Binding Disruption Assay (AlphaScreen; biotinylated KRpep-2d analogue or RAF1-RBD), G12D; conditions: KRAS G12D; geometric mean; read-out: KRAS GMean IC50 (uM) MUTATION: G12D
T2 construct: G12D or G12C-mutant human KRAS (amino acid residues 1-188) with FLAG tag; made in house; host or cells: E. coli
In short: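 Mutant KRAS (5-20 nM) incubated 1 h at 25° C with test compound and 5-20 nM biotinylated KRpep-2d analogue or RAF1-RBD in 20 mM HEPES pH 7.5, 100 mM NaCl, 5 mM MgCl2, 0.01% Tween-20, 0.01% BSA.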

IC50 [1] [µM] | IC50 [2] [µM] | Compound
10 to 100 | 0.0001 to 10 | OCC1(COc2nc(N3C[C@H]4CC[C@@H](C3)N4)c3ccc(-c4cc(O)cc5ccccc45)c(F)c3n2)CC1 [P-0614, 4-(4-((1R,5S)-3,8-diazabicyclo[3.2.1]octan-3-yl)-8-fluoro-2-((l (hydroxymethyl)cyclopropyl)methoxy)quinazolin-7-yl)naphthalen-2-ol]
10 to 100 | 10 to 100 | CN1CCN(CCCC(=O)N2C3COCC2CN(c2nc(OC[C@@H]4CCCN4C)nc4c(F)c(-c5cc(O)cc6ccccc56)ccc24)C3)CC1 [P-0252, 1-(7-(8-fluoro-7-(3-hydroxynaphthalen-1-yl)-2-(((S)-1-methylpyrrolidin-2-yl)methoxy)quinazolin-4-yl)-3-oxa-7,9-diazabicyclo[3.3.1]nonan-9-yl)-4-(4-methylpiperazin-1-yl)butan-1-one]
0.0001 to 10 | 0.0001 to 10 | CCc1cccc2[nH]cc(-c3ccc4c(N5C[C@H]6CC[C@@H](C5)N6)nc(OC[C@@]56CCCN5C[C@H](F)C6)nc4c3F)c12 [P-0511, 4-((1R,5S)-3,8-diazabicyclo[3.2.1]octan-3-yl)-7-(4-ethyl-1H-indol-3-yl)-8-fluoro-2-(((2R,7aS)-2-fluorotetrahydro-1H-pyrrolizin-7a(5H)-yl)methoxy)quinazoline]
10 to 100 | 0.0001 to 10 | OCCc1nc(N2C[C@H]3CC[C@@H](C2)N3)c2ccc(-c3cc(O)cc4ccccc34)c(F)c2n1 [P-0431, 4-(4-((1R,5S)-3,8-diazabicyclo[3.2.1]octan-3-yl)-8-fluoro-2-(2-hydroxyethyl)quinazolin-7-yl)naphthalen-2-ol]
0.0001 to 10 | 0.0001 to 10 | O=C(c1c[nH]c(=O)[nH]c1=O)N1[C@@H]2CC[C@H]1CN(c1nc(OCC34CCCN3CCC4)nc3cc(-c4cc(O)cc5ccccc45)ccc13)C2 [P-0108, 5-((1R,5S)-3-(7-(3-hydroxynaphthalen-1-yl)-2-((tetrahydro-1H-pyrrolizin-7a(5H)-yl)methoxy)quinazolin-4-yl)-3,8-diazabicyclo[3.2.1]octane-8-carbonyl)pyrimidine-2,4(1H,3H)-dione]
10 to 100 | 10 to 100 | CN1CCC[C@H]1COc1nc(N2[C@@H]3CC[C@H]2CN(C(=O)CCC2CNCCN2)C3)c2ccc(-c3cc(O)cc4ccccc34)cc2n1 (stereo partly drawn) [P-0194, 1-((1R,5S)-8-(7-(3-hydroxynaphthalen-1-yl)-2-(((S)-1-methylpyrrolidin-2-yl)methoxy)quinazolin-4-yl)-3,8-diazabicyclo[3.2.1]octan-3-yl)-3-(piperazin-2-yl)propan-1-one]
0.0001 to 10 | 0.0001 to 10 | CN1CCC[C@H]1COc1nc(N2C[C@H]3CC[C@@H](C2)N3C(=O)CC#N)c2ccc(-c3cc(O)cc4ccccc34)cc2n1 [P-0368, 3-((1R,5S)-3-(7-(3-hydroxynaphthalen-1-yl)-2-(((S)-1-methylpyrrolidin-2-yl)methoxy)quinazolin-4-yl)-3,8-diazabicyclo[3.2.1]octan-8-yl)-3-oxopropanenitrile]
10 to 100 | 10 to 100 | CN1CCc2ccc(Oc3nc(N4[C@@H]5CC[C@H]4CNC5)c4ccc(-c5cc(O)cc6ccccc56)cc4n3)cc2C1 [P-0237, 4-(4-((1R,5S)-3,8-diazabicyclo[3.2.1]octan-8-yl)-2-((2-methyl-1,2,3,4-tetrahydroisoquinolin-7-yl)oxy)quinazolin-7-yl)naphthalen-2-ol]
10 to 100 | 0.0001 to 10 | COc1cccc(F)c1-c1c(Cl)cc2c(N3C[C@H]4CC[C@@H](C3)N4)nc(OC3CCN(C)CC3)nc2c1F [P-0330, 4-((1R,5S)-3,8-diazabicyclo[3.2.1]octan-3-yl)-6-chloro-8-fluoro-7-(2-fluoro-6-methoxyphenyl)-2-((1-methylpiperidin-4-yl)oxy)quinazoline]
10 to 100 | 10 to 100 | OCc1nc(N2C[C@H]3CC[C@@H](C2)N3)c2cc(Cl)c(-c3c(O)cccc3F)c(F)c2n1 [P-0456, 2-(4-((1R,5S)-3,8-diazabicyclo[3.2.1]octan-3-yl)-6-chloro-8-fluoro-2-(hydroxymethyl)quinazolin-7-yl)-3-fluorophenol]
0.0001 to 10 | 0.0001 to 10 | OCCCN1[C@@H]2CC[C@H]1CN(c1nc(OCC34CCCN3CCC4)nc3c(F)c(-c4cc(O)cc5ccccc45)ccc13)C2 [P-0628, 4-(8-fluoro-4-((1R,5S)-8-(3-hydroxypropyl)-3,8-diazabicyclo[3.2.1]octan-3-yl)-2-((tetrahydro-1H-pyrrolizin-7a(5H)-yl)methoxy)quinazolin-7-yl)naphthalen-2-ol]
10 to 100 | 0.0001 to 10 | OCC1(COc2nc(N3C[C@H]4CC[C@@H](C3)N4)c3ccc(-c4cc(O)cc5ccccc45)c(F)c3n2)CCOCC1 [P-0612, 4-(4-((1R,5S)-3,8-diazabicyclo[3.2.1]octan-3-yl)-8-fluoro-2-((4-(hydroxymethyl)tetrahydro-2H-pyran-4-yl)methoxy)quinazolin-7-yl)naphthalen-2-ol]
0.0001 to 10 | 0.0001 to 10 | CN(C)S(=O)(=O)CC(=O)N1[C@@H]2CC[C@H]1CN(c1nc(OCC34CCCN3CCC4)nc3c(F)c(-c4cc(O)cc5ccccc45)ccc13)C2 [P-0410, 2-((1R,5S)-3-(8-fluoro-7-(3-hydroxynaphthalen-1-yl)-2-((tetrahydro-1H-pyrrolizin-7a(5H)-yl)methoxy)quinazolin-4-yl)-3,8-diazabicyclo[3.2.1]octan-8-yl)-N,N-dimethyl-2-oxoethane-1-sulfonamide]
10 to 100 | 10 to 100 | CN1CCC[C@H]1COc1nc(N2C[C@H]3CC[C@@H](C2)N3)c2ccc(-c3cc([N+](=O)[O-])cc4ccccc34)cc2n1 [P-0339, 4-((1R,5S)-3,8-diazabicyclo[3.2.1]octan-3-yl)-2-(((S)-1-methylpyrrolidin-2-yl)methoxy)-7-(3-nitronaphthalen-1-yl)quinazoline]
10 to 100 | 10 to 100 | CNCC(=O)N1C[C@H]2CC[C@@H](C1)N2c1nc(OC[C@@H]2CCCN2C)nc2cc(-c3cc(O)cc4ccccc34)ccc12 [P-0206, 1-((1R,5S)-8-(7-(3-hydroxynaphthalen-1-yl)-2-(((S)-1-methylpyrrolidin-2-yl)methoxy)quinazolin-4-yl)-3,8-diazabicyclo[3.2.1]octan-3-yl)-2-(methylamino)ethan-1-one]
10 to 100 | 0.0001 to 10 | CN1CCC[C@H]1CNc1nc(N2C[C@H]3CC[C@@H](C2)N3)c2ccc(-c3cc(O)cc4ccccc34)cc2n1 [P-0016, 4-(4-((1R,5S)-3,8-diazabicyclo[3.2.1]octan-3-yl)-2-((((S)-1-methylpyrrolidin-2-yl)methyl)amino)quinazolin-7-yl)naphthalen-2-ol]
10 to 100 | 0.0001 to 10 | CN1CCC[C@H]1COc1nc(N2[C@@H]3CC[C@H]2CN(C(=O)[C@@H]2C[C@@H](O)CN2)C3)c2ccc(-c3cc(O)cc4ccccc34)cc2n1 [P-0202, ((1R,5S)-8-(7-(3-hydroxynaphthalen-1-yl)-2-(((S)-1-methylpyrrolidin-2-yl)methoxy)quinazolin-4-yl)-3,8-diazabicyclo[3.2.1]octan-3-yl)((2S,4R)-4-hydroxypyrrolidin-2-yl)methanone]
100 to 1000 | 100 to 1000 | CN1CCC[C@H]1COc1nc(N2C[C@H]3CC[C@@H](C2)N3)c2ccc(-c3ccccc3O)cc2n1 [P-0169, 2-(4-((1R,5S)-3,8-diazabicyclo[3.2.1]octan-3-yl)-2-(((S)-1-methylpyrrolidin-2-yl)methoxy)quinazolin-7-yl)phenol]
10 to 100 | 0.0001 to 10 | CCN1CCC[C@H]1COc1nc(N2C[C@H]3CC[C@@H](C2)N3)c2ccc(-c3cc(O)cc4ccccc34)cc2n1 [P-0080, 4-(4-((1R,5S)-3,8-diazabicyclo[3.2.1]octan-3-yl)-2-(((S)-1-ethylpyrrolidin-2-yl)methoxy)quinazolin-7-yl)naphthalen-2-ol]
10 to 100 | 10 to 100 | CN1CCC[C@H]1COc1nc(N2[C@@H]3CC[C@H]2CN(CC(=O)N2CCOCC2)C3)c2ccc(-c3cc(O)cc4ccccc34)cc2n1 [P-0276, 2-((1R,5S)-8-(7-(3-hydroxynaphthalen-1-yl)-2-(((S)-1-methylpyrrolidin-2-yl)methoxy)quinazolin-4-yl)-3,8-diazabicyclo[3.2.1]octan-3-yl)-1-morpholinoethan-1-one]
10 to 100 | 0.0001 to 10 | Oc1cc(-c2ccc3c(C4=C[C@@H]5CC[C@H](C4)N5)nc(OCC45CCCN4CCC5)nc3c2)c2ccccc2c1 [P-0054, 4-(4-((1S,5R)-8-azabicyclo[3.2.1]oct-2-en-3-yl)-2-((tetrahydro-1H-pyrrolizin-7a(5H)-yl)methoxy)quinazolin-7-yl)naphthalen-2-ol]
0.0001 to 10 | 10 to 100 | CN1CCC[C@H]1COc1nc(N2C[C@H]3CC[C@@H](C2)N3C(=O)CCC#N)c2ccc(-c3cc(O)cc4ccccc34)cc2n1 [P-0383, 4-((1R,5S)-3-(7-(3-hydroxynaphthalen-1-yl)-2-(((S)-1-methylpyrrolidin-2-yl)methoxy)quinazolin-4-yl)-3,8-diazabicyclo[3.2.1]octan-8-yl)-4-oxobutanenitrile]
10 to 100 | 0.0001 to 10 | CN1CCN(CCCS(=O)(=O)N2[C@@H]3CC[C@H]2CN(c2nc(OC[C@@H]4CCCN4C)nc4c(F)c(-c5cc(O)cc6ccccc56)ccc24)C3)CC1 [P-0434, 4-(8-fluoro-4-((1R,5S)-8-((3-(4-methylpiperazin-1-yl)propyl)sulfonyl)-3,8-diazabicyclo[3.2.1]octan-3-yl)-2-(((S)-1-methylpyrrolidin-2-yl)methoxy)quinazolin-7-yl)naphthalen-2-ol]
